Test results published in EP4707280A1, “1,4-CINEOLE DERIVATIVE AND INTERMEDIATE THEREOF, HERBICIDE CONTAINING SAID DERIVATIVE AS ACTIVE INGREDIENT, METHOD FOR USING HERBICIDE, AND METHOD FOR PREPARING AGROCHEMICAL COMPOSITION” (HOKKO CHEMICAL INDUSTRY CO., LTD., priority 2023, dated 2024).

Experiments:
Assay type in all cases: in vivo
[1] = system: Echinochloa crus-galli var. formosensis; assay: Test Example 1: herbicidal effect test by soil application in paddy rice; conditions: Echinochloa crus-galli, soil, 336 h; 120 g active ingredient per 10 ares; applied immediately after sowing, flooded pots; 14 days after application; read-out: weed inhibition rate
Procedure, shortened: (§1)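 Pre-emergence paddy soil application, 120 g a.i./10 a, emulsifiable concentrate diluted in water, applied by dropper right after sowing. Seeds (30/species) sown 0–1 cm in puddled, fertilized soil; flooded ~3 cm; glass greenhouse.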

[2] = system: Scirpus juncoides; assay: as above; conditions: Schoenoplectiella juncoides, soil, 336 h; 120 g active ingredient per 10 ares; applied immediately after sowing, flooded pots; 14 days after application; read-out: weed inhibition rate
Procedure, shortened: as §1

[3] = system: Digitaria ciliaris; assay: Test Example 8: herbicidal effect test by stem and leaf treatment in upland field (low dose); conditions: Digitaria ciliaris; 7.5 g per 10 ares; sprayed seven days after sowing, upland soil; 14 days after application; read-out: weed inhibition rate
[4] = system: Echinochloa crus-galli; assay: as above; conditions: Echinochloa crus-galli; 7.5 g per 10 ares; sprayed seven days after sowing, upland soil; 14 days after application; read-out: weed inhibition rate
[5] = system: Monochoria vaginalis; assay: Test Example 1: herbicidal effect test by soil application in paddy rice; conditions: Pontederia vaginalis, soil, 336 h; 120 g active ingredient per 10 ares; applied immediately after sowing, flooded pots; 14 days after application; read-out: weed inhibition rate
Procedure, shortened: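 Inhibition rate (%) read 14 days after treatment, duplicate pots. Water-diluted emulsifiable concentrate was applied by dropper at 120 g active ingredient/10 ares right after sowing. Seeds (30 per species, 0–1 cm deep) went into puddled paddy soil kept flooded at about 3 cm in a greenhouse.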

[6] = system: Digitaria ciliaris; assay: Test Example 3: herbicidal effect test by soil application in upland field; conditions: Digitaria ciliaris, 120 g per 10 ares, sprayed one day after sowing, 14 days after application, read-out: weed inhibition rate
Procedure, shortened: (§2)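 Weed inhibition (%) was assessed 14 days after treatment, in duplicate per concentration group. Seeds had been mixed into the upper 1 cm of upland alluvial loam, and the soil surface was sprayed one day later with the diluted emulsifiable concentrate at 120 g active ingredient per 10 ares.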

[7] = system: Echinochloa crus-galli; assay: as above; conditions: Echinochloa crus-galli, 120 g per 10 ares, sprayed one day after sowing, 14 days after application, read-out: weed inhibition rate
Procedure, shortened: as §2

[8] = system: Chenopodium album; assay: as above; conditions: 120 g per 10 ares, sprayed one day after sowing, 14 days after application, read-out: weed inhibition rate
Procedure, shortened: as §2

[9] = system: Scirpus juncoides; assay: Test Example 6: herbicidal effect test by application during growth period of paddy rice (low dose); conditions: Schoenoplectiella juncoides; 7.5 g per 10 ares; applied seven days after sowing, flooded pots; 14 days after application; read-out: weed inhibition rate
Procedure, shortened: (§3)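 Emulsifiable concentrate, water-diluted, dropped onto flooded paddy pots 7 days post-sowing at 7.5 g active ingredient/10 a. Greenhouse-grown weeds; percent inhibition scored at day 14 after treatment.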

[10] = system: Monochoria vaginalis; assay: as above; conditions: Pontederia vaginalis; 7.5 g per 10 ares; applied seven days after sowing, flooded pots; 14 days after application; read-out: weed inhibition rate
Procedure, shortened: as §3

[11] = system: Amaranthus viridis; assay: Test Example 3: herbicidal effect test by soil application in upland field; conditions: Amaranthus viridis, 120 g per 10 ares, sprayed one day after sowing, 14 days after application, read-out: weed inhibition rate
Procedure, shortened: as §2

[12] = system: Lindernia pyxidaria; assay: Test Example 2: herbicidal effect test by application during growth period of paddy rice; conditions: 120 g per 10 ares, applied seven days after sowing, flooded pots, 14 days after application, read-out: weed inhibition rate
Procedure, shortened: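 Greenhouse pots of flooded paddy soil, seeded shallowly with 30 seeds per weed, are treated on day 7 by dropper with diluted emulsifiable concentrate equal to 120 g a.i./10 a. Duplicate pots are scored for inhibition rate 14 days post-application.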

CC(C)[C@]12C[C@@H](OCc3ccccc3F)[C@](C)(C[C@@H]1F)O2 [1-5, (1R,2S,4S,5R)-2-fluoro-5-((2-fluorobenzyl)oxy)-1-isopropyl-4-methyl-7-oxabicyclo[2.2.1]heptane]
≥ 80%: pest or weed control at 1200 g/ha [1] | pest or weed control at 1200 g/ha [2] | inhibition at 75 g/ha [3] | inhibition at 75 g/ha [4] | pest or weed control at 1200 g/ha [5] | inhibition at 1200 g/ha [6] | inhibition at 1200 g/ha [7] | inhibition at 1200 g/ha [8] | inhibition at 75 g/ha [9] | inhibition at 75 g/ha [10]

CC(C)[C@]12C[C@@H](OCc3c(F)cccc3F)[C@](C)(C[C@@H]1F)O2 [1-7, (1S,2R,4R,5S)-2-((2,6-difluorobenzyl)oxy)-5-fluoro-4-isopropyl-1-methyl-7-oxabicyclo[2.2.1]heptane]
≥ 80%: pest or weed control at 1200 g/ha [1] | pest or weed control at 1200 g/ha [2] | inhibition at 75 g/ha [3] | inhibition at 75 g/ha [4] | pest or weed control at 1200 g/ha [5] | inhibition at 1200 g/ha [6] | inhibition at 1200 g/ha [7] | inhibition at 1200 g/ha [8] | inhibition at 1200 g/ha [11] | inhibition at 75 g/ha [10]

CC(C)[C@]12C[C@@H](OCc3ccccc3F)[C@](C)(C[C@@H]1O)O2 [1-30, (1R,2S,4S,5R)-5-((2-fluorobenzyl)oxy)-1-isopropyl-4-methyl-7-oxabicyclo[2.2.1]heptan-2-ol]
≥ 80%: pest or weed control at 1200 g/ha [1] | pest or weed control at 1200 g/ha [2] | inhibition at 75 g/ha [3] | inhibition at 75 g/ha [4] | pest or weed control at 1200 g/ha [5] | inhibition at 1200 g/ha [6] | inhibition at 1200 g/ha [7] | inhibition at 1200 g/ha [8] | inhibition at 1200 g/ha [11] | inhibition at 75 g/ha [9]

CC(C)[C@]12C[C@@H](OCc3c(F)cccc3F)[C@](C)(C[C@@H]1O)O2 [1-41, (1R,2S,4S,5R)-5-((2,6-difluorobenzyl)oxy)-1-isopropyl-4-methyl-7-oxabicyclo[2,2,1]heptan-2-ol]
≥ 80%: pest or weed control at 1200 g/ha [1] | pest or weed control at 1200 g/ha [2] | inhibition at 75 g/ha [3] | inhibition at 75 g/ha [4] | pest or weed control at 1200 g/ha [5] | inhibition at 1200 g/ha [6] | inhibition at 1200 g/ha [7] | inhibition at 1200 g/ha [8] | inhibition at 1200 g/ha [11] | inhibition at 75 g/ha [9]

Cc1ccccc1CO[C@@H]1C[C@]2(C(C)C)O[C@@]1(C)CC2C (stereo partly drawn) [1-83, (1S,2R,4R)-4-isopropyl-1,5-dimethyl-2-((2-methylbenzyl)oxy)-7-oxabicyclo[2.2.1]heptane]
≥ 80%: pest or weed control at 1200 g/ha [1] | pest or weed control at 1200 g/ha [2] | inhibition at 75 g/ha [3] | inhibition at 75 g/ha [4] | pest or weed control at 1200 g/ha [5] | inhibition at 1200 g/ha [6] | inhibition at 1200 g/ha [7] | inhibition at 1200 g/ha [8] | inhibition at 75 g/ha [9] | inhibition at 75 g/ha [10]

CO[C@H]1C[C@]2(C)O[C@@]1(C(C)C)C[C@H]2OCc1ccccc1F [1-156, (1S,2R,4R,5S)-2-((2-fluorobenzyl)oxy)-4-isopropyl-5-methoxy-1-methyl-7-oxabicyclo[2.2.1]heptane]
≥ 80%: pest or weed control at 1200 g/ha [1] | pest or weed control at 1200 g/ha [2] | inhibition at 75 g/ha [3] | inhibition at 75 g/ha [4] | pest or weed control at 1200 g/ha [5] | inhibition at 1200 g/ha [6] | inhibition at 1200 g/ha [7] | inhibition at 1200 g/ha [8] | inhibition at 1200 g/ha [11] | inhibition at 75 g/ha [9] | inhibition at 75 g/ha [10]

CC(C)[C@]12C[C@@H](OCc3ccccc3F)[C@](C)(C[C@@H]1OCc1ccccc1F)O2 [1-603, (1S,2R,4R,5S)-2,5-bis[(2-fluorophenyl)methoxy]-1-methyl-4-isopropyl-7-oxabicyclo[2.2.1]heptane]
≥ 80%: pest or weed control at 1200 g/ha [1] | pest or weed control at 1200 g/ha [2] | pest or weed control at 1200 g/ha [5] | inhibition at 1200 g/ha [6] | inhibition at 1200 g/ha [7] | inhibition at 1200 g/ha [8] | inhibition at 75 g/ha [10]

CC(C)=CCO[C@@H]1C[C@]2(C(C)C)O[C@@]1(C)C[C@@H]2Br [1-672, (1S,2R,4R,5S)-5-bromo-1-methyl-2-(3-methylbut-2-enoxy)-4-isopropyl-7-oxabicyclo[2.2.1]heptane]
≥ 80%: inhibition at 1200 g/ha [12] | pest or weed control at 1200 g/ha [1] | inhibition at 75 g/ha [3] | inhibition at 75 g/ha [4] | pest or weed control at 1200 g/ha [5] | inhibition at 1200 g/ha [6] | inhibition at 1200 g/ha [7] | inhibition at 1200 g/ha [11] | inhibition at 75 g/ha [10]

CC(C)[C@]12C[C@@H](OCc3ccccc3C#N)[C@](C)(C[C@@H]1Br)O2 [1-703, 2-[[(1S,2R,4R,5S)-5-bromo-1-methyl-4-isopropyl-7-oxabicyclo[2.2.1]heptan-2-yl]oxymethyl]benzonitrile]
≥ 80%: inhibition at 1200 g/ha [12] | pest or weed control at 1200 g/ha [1] | pest or weed control at 1200 g/ha [2] | inhibition at 75 g/ha [3] | pest or weed control at 1200 g/ha [5] | inhibition at 1200 g/ha [6] | inhibition at 1200 g/ha [7] | inhibition at 1200 g/ha [11]

COC1(OC)C[C@]2(C)O[C@@]1(C(C)C)C[C@H]2OCc1ccccc1F [1-935, (1R,4S,5R)-5-((2-fluorobenzyl)oxy)-1-isopropyl-2,2-dimethoxy-4-methyl-7-oxabicyclo[2.2.1]heptane]
≥ 80%: inhibition at 1200 g/ha [12] | pest or weed control at 1200 g/ha [1] | pest or weed control at 1200 g/ha [2] | pest or weed control at 1200 g/ha [5] | inhibition at 1200 g/ha [6] | inhibition at 1200 g/ha [7]

Cc1cccc(C)c1CO[C@@H]1C[C@]2(C(C)C)O[C@@]1(C)CC2=O [2-5, (1R,4S,5R)-5-((2,6-dimethylbenzyl)oxy)-1-isopropyl-4-methyl-7-oxabicyclo[2.2.1]heptan-2-one]
≥ 80%: inhibition at 1200 g/ha [12] | pest or weed control at 1200 g/ha [1] | pest or weed control at 1200 g/ha [2] | inhibition at 75 g/ha [3] | inhibition at 75 g/ha [4] | pest or weed control at 1200 g/ha [5] | inhibition at 1200 g/ha [6] | inhibition at 1200 g/ha [7]

CC(C)[C@]12C[C@@H](OCc3ccccc3F)[C@](C)(CC1=O)O2 [2-9, (1R,4S,5R)-5-((2-fluorobenzyl)oxy)-1-isopropyl-4-methyl-7-oxabicyclo[2.2.1]heptan-2-one]
≥ 80%: pest or weed control at 1200 g/ha [1] | pest or weed control at 1200 g/ha [2] | inhibition at 75 g/ha [3] | inhibition at 75 g/ha [4] | pest or weed control at 1200 g/ha [5] | inhibition at 1200 g/ha [6] | inhibition at 1200 g/ha [7] | inhibition at 1200 g/ha [8] | inhibition at 1200 g/ha [11] | inhibition at 75 g/ha [9] | inhibition at 75 g/ha [10]

CC(C)[C@]12C[C@@H](OCc3cccc(F)c3)[C@](C)(CC1=O)O2 [2-351, (1R,4S,5R)-5-((3-fluorobenzyl)oxy)-1-isopropyl-4-methyl-7-oxabicyclo[2.2.1]heptan-2-one]
≥ 80%: inhibition at 1200 g/ha [12] | pest or weed control at 1200 g/ha [1] | pest or weed control at 1200 g/ha [2] | inhibition at 75 g/ha [3] | inhibition at 75 g/ha [4] | pest or weed control at 1200 g/ha [5] | inhibition at 1200 g/ha [6] | inhibition at 1200 g/ha [7] | inhibition at 1200 g/ha [11]
